{"source": "paper PMC4877006", "about": "“From Binding-Induced Dynamic Effects in SH3 Structures to Evolutionary Conserved Sectors” (PLoS Computational Biology, 2016)", "parameters_in_all_cases": "species or system chicken", "key": {"c-Src L32V (SH3 domain)": {"biological_target": "T1, c-Src L32V (SH3 domain) (Gallus gallus, UniProt P00523, L100V/Q128R)", "T1 construct": "The plasmid pET15b containing the chicken c-Src-SH3 domain gene; made in house", "assay": "Fluorescence titration binding of peptide RLP2 to c-Src SH3 L32V", "details": "fluorescence titration only, 25 °C; L32V; read-out: Kd (25 ºC)", "from_the_text": "(§1) The plasmid pET15b containing the chicken c-Src-SH3 domain gene was a generous gift from Dr. E. Freire (Johns Hopkins University). The genes encoding for the c-Src-SH3 mutants were obtained by site directed mutagenesis using the QuickChange Site-Directed-Mutagenesis Kit (Stratagene) taking the WT c-Src-SH3 plasmid as template or purchased from Top Gene Technologies, Canada. WT and mutants of c-Src-SH3 domain were expressed and purified as previously described for the wild type protein [68]. The peptide RLP2 (Ac-RALPPLPRY-NH2) was bought from Peptide 2.0 (Piscataway, USA) and JPT (Berlin, Germany) with a purity > 95%. Protein concentration was determined by absorbance at 280 nm using an extinction coefficient of 16500 M^-1·cm^-1. Peptide concentration was determined by absorbance at 274 nm using an extinction coefficient of 1400 M^-1·cm^-1.\n(§2) Supplementary file pcbi.1004938.s008.doc: S3 Table Analysis of Src SH3 binding affinities through ITC. Thermodynamic binding affinity to peptide RLP2. A * indicates experiment made by fluorescence titration only. (DOC) Click here for additional data file."}, "c- Src R73Q (SH3 domain)": {"biological_target": "T2, c- Src R73Q (SH3 domain) (Gallus gallus, UniProt P00523)", "T2 construct": "The plasmid pET15b containing the chicken c-Src-SH3 domain gene; made in house", "assay": "ITC binding of peptide RLP2 to c-Src SH3 R73Q", "details": "25 °C", "protocol": "(§3) Differential Scanning Calorimetry (DSC) was used to evaluate the effect of the mutation on the conformational equilibrium and stability of the protein. Isothermal Titration Calorimetry (ITC) measured the binding energetics of all mutants to the RLP2 ligand at 25°C. The results for the 15 mutants studied are summarized in Figs 1D, S1 and S2, as well as S3 and S4 Tables.\nas §1\n(§4) Isothermal titration calorimetry was performed using a high-precision VP titration calorimetric system (Microcal Inc., Northampton, MA) as previously described. […] Titrations were made using a profile of injection volumes from 3 μL to 20 μL to define the titration curve more clearly. The heat produced by the binding reaction between the Src-SH3 domain and the peptide ligand was calculated as the difference between the heat of reaction and the corresponding heat of dilution, as obtained from independent titrations of the peptide ligand into the buffer. The resulting binding isotherms were analyzed by non-linear least-square fittings of the experimental data to a model corresponding to a single set of identical sites, as described before.\nas §2"}, "c-Src L40V (SH3 domain)": {"test_system": "c-Src L40V (SH3 domain)", "assay": "ITC binding of peptide RLP2 to c-Src SH3 L40V", "details": "25 °C", "protocol": "as §3, §1, §4, §2"}, "c-Src R73K (SH3 domain)": {"biological_target": "T3, c-Src R73K (SH3 domain) (Gallus gallus, UniProt P00523, Q128K)", "T3 construct": "The plasmid pET15b containing the chicken c-Src-SH3 domain gene; made in house", "assay": "ITC binding of peptide RLP2 to c-Src SH3 R73K", "details": "25 °C", "protocol": "as §3, §1, §4, §2"}, "c-Src L40I (SH3 domain)": {"biological_target": "T4, c-Src L40I (SH3 domain) (Gallus gallus, UniProt P00523, L108I)", "T4 construct": "The plasmid pET15b containing the chicken c-Src-SH3 domain gene; made in house", "assay": "ITC binding of peptide RLP2 to c-Src SH3 L40I", "details": "25 °C", "protocol": "as §3, §1, §4, §2"}, "c-Src N45S (SH3 domain)": {"biological_target": "T5, c-Src N45S (SH3 domain) (Gallus gallus, UniProt P00523, N113S)", "T5 construct": "The plasmid pET15b containing the chicken c-Src-SH3 domain gene; made in house", "assay": "ITC binding of peptide RLP2 to c-Src SH3 N45S", "details": "25 °C", "protocol": "as §3, §1, §4, §2"}, "c- Src W56L (SH3 domain)": {"biological_target": "T6, c- Src W56L (SH3 domain) (Gallus gallus, UniProt P00523, Q128R/W119L)", "T6 construct": "The plasmid pET15b containing the chicken c-Src-SH3 domain gene; made in house", "assay": "ITC binding of peptide RLP2 to c-Src SH3 W56L", "details": "25 °C", "protocol": "as §3, §1, §4, §2"}, "c-Src F34I (SH3 domain)": {"biological_target": "T7, c-Src F34I (SH3 domain) (Gallus gallus, UniProt P00523, F102I/Q128R)", "T7 construct": "The plasmid pET15b containing the chicken c-Src-SH3 domain gene; made in house", "assay": "ITC binding of peptide RLP2 to c-Src SH3 F34I", "details": "25 °C", "protocol": "as §3, §1, §4, §2"}, "[1]": {"details": "binding of RLP2, R73Q relative to wt"}, "[2]": {"details": "binding of RLP2, L40V relative to wt"}, "[3]": {"details": "binding of RLP2, R73K relative to wt"}, "[4]": {"details": "binding of RLP2, L40I relative to wt"}, "[5]": {"details": "binding of RLP2, N45S relative to wt"}, "[6]": {"details": "binding of RLP2, W56L relative to wt"}, "[7]": {"details": "binding of RLP2, F34I relative to wt"}}, "data": [{"substance": "Ac-RALPPLPRY-NH2 [RLP2, Ac-RALPPLPRY-NH2]", "values": [{"measurement": "Kd", "setting": "c-Src L32V (SH3 domain)", "value": "269 ± 29", "unit": "µM"}, {"measurement": "∆∆Gb (25 ºC)", "setting": "c- Src R73Q (SH3 domain); [1]", "value": "-0.11 ± 0.04", "unit": "kcal/mol"}, {"measurement": "∆∆Hb (25 ºC)", "setting": "c- Src R73Q (SH3 domain); [1]", "value": "-0.4 ± 0.2", "unit": "kcal/mol"}, {"measurement": "∆Gb (25 ºC)", "setting": "c- Src R73Q (SH3 domain); ITC, binding of RLP2, R73Q", "value": "-6.74 ± 0.02", "unit": "kcal/mol"}, {"measurement": "∆Hb (25 ºC)", "setting": "c- Src R73Q (SH3 domain); ITC, binding of RLP2, R73Q", "value": "-14.6 ± 0.1", "unit": "kcal/mol"}, {"measurement": "Kd", "setting": "c- Src R73Q (SH3 domain); ITC, RLP2 about 2 mM titrated into SH3 (50-122 μM), R73Q (control), read-out: Kd (25 ºC)", "value": "11.4 ± 0.3", "unit": "µM"}, {"measurement": "∆∆Gb (25 ºC)", "setting": "c-Src L40V (SH3 domain); [2]", "value": "0.24 ± 0.04", "unit": "kcal/mol"}, {"measurement": "∆∆Hb (25 ºC)", "setting": "c-Src L40V (SH3 domain); [2]", "value": "-0.6 ± 0.3", "unit": "kcal/mol"}, {"measurement": "∆Gb (25 ºC)", "setting": "c-Src L40V (SH3 domain); ITC, binding of RLP2, L40V", "value": "-6.39 ± 0.02", "unit": "kcal/mol"}, {"measurement": "∆Hb (25 ºC)", "setting": "c-Src L40V (SH3 domain); ITC, binding of RLP2, L40V", "value": "-14.8 ± 0.2", "unit": "kcal/mol"}, {"measurement": "Kd", "setting": "c-Src L40V (SH3 domain); ITC, RLP2 about 2 mM titrated into SH3 (50-122 μM), L40V, read-out: Kd (25 ºC)", "value": "20.5 ± 0.6", "unit": "µM"}, {"measurement": "∆∆Gb (25 ºC)", "setting": "c-Src R73K (SH3 domain); [3]", "value": "-0.12 ± 0.04", "unit": "kcal/mol"}, {"measurement": "∆∆Hb (25 ºC)", "setting": "c-Src R73K (SH3 domain); [3]", "value": "0.3 ± 0.2", "unit": "kcal/mol"}, {"measurement": "∆Gb (25 ºC)", "setting": "c-Src R73K (SH3 domain); ITC, binding of RLP2, R73K", "value": "-6.75 ± 0.02", "unit": "kcal/mol"}, {"measurement": "∆Hb (25 ºC)", "setting": "c-Src R73K (SH3 domain); ITC, binding of RLP2, R73K", "value": "-13.9 ± 0.1", "unit": "kcal/mol"}, {"measurement": "Kd", "setting": "c-Src R73K (SH3 domain); ITC, RLP2 about 2 mM titrated into SH3 (50-122 μM), R73K (control), read-out: Kd (25 ºC)", "value": "11.3 ± 0.4", "unit": "µM"}, {"measurement": "∆∆Gb (25 ºC)", "setting": "c-Src L40I (SH3 domain); [4]", "value": "0.24 ± 0.04", "unit": "kcal/mol"}, {"measurement": "∆∆Hb (25 ºC)", "setting": "c-Src L40I (SH3 domain); [4]", "value": "0.4 ± 0.4", "unit": "kcal/mol"}, {"measurement": "∆Gb (25 ºC)", "setting": "c-Src L40I (SH3 domain); ITC, binding of RLP2, L40I", "value": "-6.39 ± 0.02", "unit": "kcal/mol"}, {"measurement": "∆Hb (25 ºC)", "setting": "c-Src L40I (SH3 domain); ITC, binding of RLP2, L40I", "value": "-13.8 ± 0.3", "unit": "kcal/mol"}, {"measurement": "Kd", "setting": "c-Src L40I (SH3 domain); ITC, RLP2 about 2 mM titrated into SH3 (50-122 μM), L40I, read-out: Kd (25 ºC)", "value": "20.6 ± 0.6", "unit": "µM"}, {"measurement": "∆∆Gb (25 ºC)", "setting": "c-Src N45S (SH3 domain); [5]", "value": "0.19 ± 0.04", "unit": "kcal/mol"}, {"measurement": "∆∆Hb (25 ºC)", "setting": "c-Src N45S (SH3 domain); [5]", "value": "0.1 ± 0.3", "unit": "kcal/mol"}, {"measurement": "∆Gb (25 ºC)", "setting": "c-Src N45S (SH3 domain); ITC, binding of RLP2, N45S", "value": "-6.44 ± 0.02", "unit": "kcal/mol"}, {"measurement": "∆Hb (25 ºC)", "setting": "c-Src N45S (SH3 domain); ITC, binding of RLP2, N45S", "value": "-14.1 ± 0.2", "unit": "kcal/mol"}, {"measurement": "Kd", "setting": "c-Src N45S (SH3 domain); ITC, RLP2 about 2 mM titrated into SH3 (50-122 μM), N45S, read-out: Kd (25 ºC)", "value": "19 ± 0.6", "unit": "µM"}, {"measurement": "∆∆Gb (25 ºC)", "setting": "c- Src W56L (SH3 domain); [6]", "value": "0.98 ± 0.03", "unit": "kcal/mol"}, {"measurement": "∆∆Hb (25 ºC)", "setting": "c- Src W56L (SH3 domain); [6]", "value": "2.4 ± 0.2", "unit": "kcal/mol"}, {"measurement": "∆Gb (25 ºC)", "setting": "c- Src W56L (SH3 domain); ITC, binding of RLP2, W56L", "value": "-5.65 ± 0.01", "unit": "kcal/mol"}, {"measurement": "∆Hb (25 ºC)", "setting": "c- Src W56L (SH3 domain); ITC, binding of RLP2, W56L", "value": "-11.8 ± 0.1", "unit": "kcal/mol"}, {"measurement": "Kd", "setting": "c- Src W56L (SH3 domain); ITC, RLP2 about 2 mM titrated into SH3 (50-122 μM), W56L, read-out: Kd (25 ºC)", "value": "72.5 ± 1.4", "unit": "µM"}, {"measurement": "∆∆Gb (25 ºC)", "setting": "c-Src F34I (SH3 domain); [7]", "value": "0.79 ± 0.03", "unit": "kcal/mol"}, {"measurement": "∆∆Hb (25 ºC)", "setting": "c-Src F34I (SH3 domain); [7]", "value": "0.6 ± 0.3", "unit": "kcal/mol"}, {"measurement": "∆Gb (25 ºC)", "setting": "c-Src F34I (SH3 domain); ITC, binding of RLP2, F34I", "value": "-5.84 ± 0.01", "unit": "kcal/mol"}, {"measurement": "∆Hb (25 ºC)", "setting": "c-Src F34I (SH3 domain); ITC, binding of RLP2, F34I", "value": "-13.6 ± 0.3", "unit": "kcal/mol"}, {"measurement": "Kd", "setting": "c-Src F34I (SH3 domain); ITC, RLP2 about 2 mM titrated into SH3 (50-122 μM), F34I, read-out: Kd (25 ºC)", "value": "52.6 ± 1.2", "unit": "µM"}]}]}
